According to patent publication US10550111B2, “Pyrimidine urea compound containing isoxazolines and use thereof” (SHENYANG SINOCHEM AGROCHEMICALS R&D CO., LTD, priority 2014, dated 2020):

Legend:
Format in all cases: in vivo
[1] = tested on: Abutilon theophrasti Medic.; experiment: Bioassay of herbicidal activity in greenhouse (further screening)
Experimental: (§1) Determination of herbicidal activity of compounds of the present invention against weeds was carried out by the following procedures:
(§2) Seeds of monocotyledonous and dicotyledonous weeds were sown in nutrition soil in paper pot (7 cm diameter), covered with soil in 1 cm and grown in the greenhouse under good growth conditions (temperature, atmospheric humidity, water supply). The compounds of the present invention as emulsifiable concentrate, were applied in pre-emergence and post-emergence treatment by track sprayer (Engineer Research Ltd., pressure 1.95 kg/cm^2, volume 500 L/hm^2, track speed 1.48 km/h). Pre-emergence treatment was conducted after seeding 24 hours and post-emergence treatment was done when the respective weeds reached predetermined leaf stage (grass weed 2- to 3-leaf stage, broad-leaf weed 2- to 4-leaf stage), the state of growth of the respective weeds were visually observed to determine the growth inhibition rate (%) in accordance with the following evaluation standard.
(§3) Growth inhibition rate (%): 0=no discernible action: 100=all weeds dead or not emerged.

[2] = tested on: Zinnia elegans Jacq.; experiment: as above
Experimental: as §1, §2, §3

[3] = tested on: Setaria glauca (L.) Beauv.; experiment: as above
Experimental: as §1, §2, §3

[4] = tested on: Echinochloa crus-galli (L.) Beauv.; experiment: as above
Experimental: as §1, §2, §3

[5] = tested on: broad-leaf weeds and grass weeds; experiment: General screening of herbicidal activity in greenhouse; conditions: 1000 g a.i./hm^2;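 further: 0 means no visible effect and 100 means all weeds dead or not emerged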
Experimental: as §1, §2, §3

## Cn1c(C(F)(F)F)cc(=O)n(-c2cc(C3=NOC(C)(COS(C)(=O)=O)C3)c(Cl)cc2F)c1=O (stereo not drawn) [Compound 88]
[1]; dose 7.5 g a.i./hm^2
  Growth inhibition rate, Post-emergence treatment, Abutilon theophrasti Medic.: 98%
  Growth inhibition rate, Pre-emergence treatment, Abutilon theophrasti Medic.: 98%
[1]; dose 15 g a.i./hm^2
  Growth inhibition rate, Post-emergence treatment, Abutilon theophrasti Medic.: 100%
  Growth inhibition rate, Pre-emergence treatment, Abutilon theophrasti Medic.: 100%
[1]; dose 37.5 g a.i./hm^2
  Growth inhibition rate, Post-emergence treatment, Abutilon theophrasti Medic.: 98%
  Growth inhibition rate, Pre-emergence treatment, Abutilon theophrasti Medic.: 85%
[1]; dose 150 g a.i./hm^2
  Growth inhibition rate, Post-emergence treatment, Abutilon theophrasti Medic.: 100%
  Growth inhibition rate, Pre-emergence treatment, Abutilon theophrasti Medic.: 100%
[1]; dose 600 g a.i./hm^2
  Growth inhibition rate, Post-emergence treatment, Abutilon theophrasti Medic.: 100%
  Growth inhibition rate, Pre-emergence treatment, Abutilon theophrasti Medic.: 100%
[2]; dose 7.5 g a.i./hm^2
  Growth inhibition rate, Post-emergence treatment, Zinnia elegans Jacq.: 98%
  Growth inhibition rate, Pre-emergence treatment, Zinnia elegans Jacq.: 20%
[2]; dose 15 g a.i./hm^2
  Growth inhibition rate, Post-emergence treatment, Zinnia elegans Jacq.: 100%
  Growth inhibition rate, Pre-emergence treatment, Zinnia elegans Jacq.: 30%
[2]; dose 37.5 g a.i./hm^2
  Growth inhibition rate, Post-emergence treatment, Zinnia elegans Jacq.: 100%
  Growth inhibition rate, Pre-emergence treatment, Zinnia elegans Jacq.: 45%
[2]; dose 150 g a.i./hm^2
  Growth inhibition rate, Post-emergence treatment, Zinnia elegans Jacq.: 100%
  Growth inhibition rate, Pre-emergence treatment, Zinnia elegans Jacq.: 100%
[2]; dose 600 g a.i./hm^2
  Growth inhibition rate, Post-emergence treatment, Zinnia elegans Jacq.: 100%
  Growth inhibition rate, Pre-emergence treatment, Zinnia elegans Jacq.: 100%
[3]; dose 7.5 g a.i./hm^2
  Growth inhibition rate, Post-emergence treatment, Setaria glauca (L.) Beauv.: 25%
  Growth inhibition rate, Pre-emergence treatment, Setaria glauca (L.) Beauv.: 65%
[3]; dose 15 g a.i./hm^2
  Growth inhibition rate, Post-emergence treatment, Setaria glauca (L.) Beauv.: 30%
  Growth inhibition rate, Pre-emergence treatment, Setaria glauca (L.) Beauv.: 80%
[3]; dose 37.5 g a.i./hm^2
  Growth inhibition rate, Post-emergence treatment, Setaria glauca (L.) Beauv.: 45%
  Growth inhibition rate, Pre-emergence treatment, Setaria glauca (L.) Beauv.: 30%
[3]; dose 150 g a.i./hm^2
  Growth inhibition rate, Post-emergence treatment, Setaria glauca (L.) Beauv.: 70%
  Growth inhibition rate, Pre-emergence treatment, Setaria glauca (L.) Beauv.: 85%
[3]; dose 600 g a.i./hm^2
  Growth inhibition rate, Post-emergence treatment, Setaria glauca (L.) Beauv.: 98%
  Growth inhibition rate, Pre-emergence treatment, Setaria glauca (L.) Beauv.: 100%
[4]; dose 7.5 g a.i./hm^2
  Growth inhibition rate, Post-emergence treatment, Echinochloa crus-galli (L.) Beauv.: 15%
  Growth inhibition rate, Pre-emergence treatment, Echinochloa crus-galli (L.) Beauv.: 5%
[4]; dose 15 g a.i./hm^2
  Growth inhibition rate, Post-emergence treatment, Echinochloa crus-galli (L.) Beauv.: 20%
  Growth inhibition rate, Pre-emergence treatment, Echinochloa crus-galli (L.) Beauv.: 10%
[4]; dose 37.5 g a.i./hm^2
  Growth inhibition rate, Post-emergence treatment, Echinochloa crus-galli (L.) Beauv.: 25%
  Growth inhibition rate, Pre-emergence treatment, Echinochloa crus-galli (L.) Beauv.: 15%
[4]; dose 150 g a.i./hm^2
  Growth inhibition rate, Post-emergence treatment, Echinochloa crus-galli (L.) Beauv.: 60%
  Growth inhibition rate, Pre-emergence treatment, Echinochloa crus-galli (L.) Beauv.: 80%
[4]; dose 600 g a.i./hm^2
  Growth inhibition rate, Post-emergence treatment, Echinochloa crus-galli (L.) Beauv.: 95%
  Growth inhibition rate, Pre-emergence treatment, Echinochloa crus-galli (L.) Beauv.: 100%
[5]
  pre-emergence and post-emergence herbicidal activity against broad-leaf weeds and grass weeds: good

## Cn1c(C(F)(F)F)cc(=O)n(-c2cc(C3=NOC(C)(COC(=O)CCc4ccccc4)C3)c(Cl)cc2F)c1=O (stereo not drawn) [Compound 55]
[1]; dose 37.5 g a.i./hm^2
  Growth inhibition rate, Post-emergence treatment, Abutilon theophrasti Medic.: 100%
  Growth inhibition rate, Pre-emergence treatment, Abutilon theophrasti Medic.: 5%
[1]; dose 150 g a.i./hm^2
  Growth inhibition rate, Post-emergence treatment, Abutilon theophrasti Medic.: 100%
  Growth inhibition rate, Pre-emergence treatment, Abutilon theophrasti Medic.: 20%
[1]; dose 600 g a.i./hm^2
  Growth inhibition rate, Post-emergence treatment, Abutilon theophrasti Medic.: 100%
  Growth inhibition rate, Pre-emergence treatment, Abutilon theophrasti Medic.: 45%
[2]; dose 37.5 g a.i./hm^2
  Growth inhibition rate, Post-emergence treatment, Zinnia elegans Jacq.: 100%
  Growth inhibition rate, Pre-emergence treatment, Zinnia elegans Jacq.: 0%
[2]; dose 150 g a.i./hm^2
  Growth inhibition rate, Post-emergence treatment, Zinnia elegans Jacq.: 100%
  Growth inhibition rate, Pre-emergence treatment, Zinnia elegans Jacq.: 5%
[2]; dose 600 g a.i./hm^2
  Growth inhibition rate, Post-emergence treatment, Zinnia elegans Jacq.: 100%
  Growth inhibition rate, Pre-emergence treatment, Zinnia elegans Jacq.: 80%
[3]; dose 37.5 g a.i./hm^2
  Growth inhibition rate, Post-emergence treatment, Setaria glauca (L.) Beauv.: 30%
  Growth inhibition rate, Pre-emergence treatment, Setaria glauca (L.) Beauv.: 0%
[3]; dose 150 g a.i./hm^2
  Growth inhibition rate, Post-emergence treatment, Setaria glauca (L.) Beauv.: 75%
  Growth inhibition rate, Pre-emergence treatment, Setaria glauca (L.) Beauv.: 5%
[3]; dose 600 g a.i./hm^2
  Growth inhibition rate, Post-emergence treatment, Setaria glauca (L.) Beauv.: 90%
  Growth inhibition rate, Pre-emergence treatment, Setaria glauca (L.) Beauv.: 80%
[4]; dose 37.5 g a.i./hm^2
  Growth inhibition rate, Post-emergence treatment, Echinochloa crus-galli (L.) Beauv.: 20%
  Growth inhibition rate, Pre-emergence treatment, Echinochloa crus-galli (L.) Beauv.: 0%
[4]; dose 150 g a.i./hm^2
  Growth inhibition rate, Post-emergence treatment, Echinochloa crus-galli (L.) Beauv.: 35%
  Growth inhibition rate, Pre-emergence treatment, Echinochloa crus-galli (L.) Beauv.: 20%
[4]; dose 600 g a.i./hm^2
  Growth inhibition rate, Post-emergence treatment, Echinochloa crus-galli (L.) Beauv.: 45%
  Growth inhibition rate, Pre-emergence treatment, Echinochloa crus-galli (L.) Beauv.: 40%
[5]
  pre-emergence and post-emergence herbicidal activity against broad-leaf weeds and grass weeds: good
